These results are taken from US20030153590A1, “Method of treating alcoholism or alcohol abuse” (OY CONTRAL PHARMA LTD, priority 2001, published 2003).

Counter-ions that a name gives are not always drawn. Like-named read-outs stand apart in the source and are kept apart here.

What is called solubility is how much of the substance goes into solution per volume.

The nature of series [1]: Solubility of nalmefene HCl in water as a function of pH. The class given is physicochemical. The conditions noted are these: aqueous buffer, read-out: Matematically determined solubility in water. On the procedure:
Cs is the water solubility of nalmefene.
Because the water solubility of nalmefene was not available in the literature for all the pH values used in the permeation study, the solubilities at pH values 6.5, 7.0, 7.5, and 8.0 were determined matematically from a diagram that described the logarithm of the solubility listed on Table 5 as a function of pH (Cs,pH).

For series [2] the following is noted: cited from earlier work.

Regarding `C=C1CC[C@@]2(O)[C@H]3Cc4ccc(O)c5c4[C@@]2(CCN3CC2CC2)[C@H]1O5` [Nalmefene HCl], the solubility in series [1] (pH 6.5, from diagram of log solubility of Table 5 vs pH) was found to be 112 mg/mL; in series [1] (pH 7.0, from diagram of log solubility of Table 5 vs pH), 88.6 mg/mL; in series [1] (pH 7.5, from diagram of log solubility of Table 5 vs pH), 31.9 mg/mL; in series [1] (pH 8.0, from diagram of log solubility of Table 5 vs pH) it was 0.44 mg/mL. Besides, the Solubility in water in series [2] (pH 2.25) is 128 mg/mL; in series [2] (pH 5.71) it was 131 mg/mL; in series [2] (pH 6.115) it was 133 mg/mL; in series [2] (pH 6.25) it was 124 mg/mL; in series [2] (pH 7.85) it was 1.09 mg/mL; in series [2] (pH 8.5), 0.180 mg/mL. Moreover, the Solubility in water in series [2] (pH 9.15) was 0.090 mg/mL; in series [2] (pH 10.4), 0.230 mg/mL.
